Results as given in patent US20230391739A1, “ARYL DERIVATIVES FOR TREATING TRPM3 MEDIATED DISORDERS” (Katholieke Universiteit Leuven, priority 2020, published 2023).

molecular target: T1, mouse TRPM3α2 (mTRPM3) ion channel (Mus musculus, UniProt J9SQF3); test: TRPM3 ion channel driven Ca2+ uptake, Fluo-4 AM assay, PS-stimulated (mTRPM3); assay type: cell-based; details: TRPM3 overexpressing flip-in HEK293 cells stimulated with Pregnenolone sulfate (PS) 50 μM, activity ranges A, B, C
T1 construct: expressed in transfected cells; host or cells: flip-in HEK293
Outline: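 Ca²⁺ influx through mouse TRPM3α2, opened by 50 μM pregnenolone sulfate, was tracked with Fluo-4 AM in stably transfected HEK293 cells read directly after seeding onto pre-dispensed compound.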

T1 sequence (J9SQF3 1-1709 isoform J9SQF3-12): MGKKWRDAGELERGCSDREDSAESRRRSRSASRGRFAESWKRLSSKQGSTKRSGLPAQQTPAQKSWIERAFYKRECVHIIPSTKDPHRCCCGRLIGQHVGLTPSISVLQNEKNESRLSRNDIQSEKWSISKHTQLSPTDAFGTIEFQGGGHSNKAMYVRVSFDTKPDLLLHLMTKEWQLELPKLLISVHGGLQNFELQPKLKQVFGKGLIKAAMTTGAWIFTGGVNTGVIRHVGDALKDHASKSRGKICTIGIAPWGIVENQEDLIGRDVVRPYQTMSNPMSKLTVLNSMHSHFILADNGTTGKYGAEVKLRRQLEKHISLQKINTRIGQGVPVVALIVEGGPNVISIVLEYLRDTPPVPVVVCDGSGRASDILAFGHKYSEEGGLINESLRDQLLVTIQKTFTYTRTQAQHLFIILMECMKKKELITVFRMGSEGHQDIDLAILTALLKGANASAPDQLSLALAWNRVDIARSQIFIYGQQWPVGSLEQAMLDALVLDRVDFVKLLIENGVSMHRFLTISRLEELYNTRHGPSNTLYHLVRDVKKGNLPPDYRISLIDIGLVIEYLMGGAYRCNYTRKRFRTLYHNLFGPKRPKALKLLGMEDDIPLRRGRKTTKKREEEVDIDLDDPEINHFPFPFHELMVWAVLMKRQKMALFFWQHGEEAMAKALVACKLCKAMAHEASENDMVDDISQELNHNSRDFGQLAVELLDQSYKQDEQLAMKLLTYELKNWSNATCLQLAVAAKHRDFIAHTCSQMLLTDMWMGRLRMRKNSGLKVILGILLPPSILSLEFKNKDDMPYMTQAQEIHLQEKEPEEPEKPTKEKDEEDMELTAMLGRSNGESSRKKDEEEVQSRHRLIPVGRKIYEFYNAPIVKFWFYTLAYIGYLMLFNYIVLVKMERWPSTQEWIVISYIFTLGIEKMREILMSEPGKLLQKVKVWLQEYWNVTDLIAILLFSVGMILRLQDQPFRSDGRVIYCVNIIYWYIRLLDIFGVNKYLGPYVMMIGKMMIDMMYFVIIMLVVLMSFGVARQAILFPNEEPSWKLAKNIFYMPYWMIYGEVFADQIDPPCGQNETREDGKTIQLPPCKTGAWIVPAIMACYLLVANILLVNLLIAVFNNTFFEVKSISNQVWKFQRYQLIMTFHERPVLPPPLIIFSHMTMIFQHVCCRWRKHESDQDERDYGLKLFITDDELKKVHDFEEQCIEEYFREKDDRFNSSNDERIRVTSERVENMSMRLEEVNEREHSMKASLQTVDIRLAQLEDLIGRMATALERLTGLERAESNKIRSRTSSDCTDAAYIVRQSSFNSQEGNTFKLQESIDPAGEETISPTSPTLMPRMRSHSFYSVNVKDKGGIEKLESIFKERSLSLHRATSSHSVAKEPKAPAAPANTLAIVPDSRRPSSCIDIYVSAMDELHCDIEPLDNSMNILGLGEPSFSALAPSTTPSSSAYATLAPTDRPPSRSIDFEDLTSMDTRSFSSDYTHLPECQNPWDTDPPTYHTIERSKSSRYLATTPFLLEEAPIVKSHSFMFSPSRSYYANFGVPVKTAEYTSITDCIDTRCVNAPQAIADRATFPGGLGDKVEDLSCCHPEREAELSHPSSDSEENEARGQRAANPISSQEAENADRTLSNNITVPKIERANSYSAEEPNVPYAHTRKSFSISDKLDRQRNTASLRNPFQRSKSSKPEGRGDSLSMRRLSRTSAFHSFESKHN

Question: With Cc1oc2ccc(OCc3ccccc3)cc2c1C(=O)N[C@H]1C[C@H]2C(=O)NCC(=O)N2C1 [Cpd 222, 5-(benzyloxy)-N-((7S,8aS)-1,4-dioxooctahydropyrrolo[1,2-a]pyrazin-7-yl)-2-methylbenzofuran-3-carboxamide] as the compound, how does the IC50 read?
Answer: 1000 to 20000 nM

Question: For COC(=O)C1(NC(=O)c2c(C)oc3ccc(OCc4ccccc4)cc23)CCOCC1 [Cpd 212, methyl 4-(5-(benzyloxy)-2-methylbenzofuran-3-carboxamido)tetrahydro-2H-pyran-4-carboxylate], which IC50 is on record?
Answer: < 1000 nM

Question: For Cc1oc2ccc(OCc3ccccc3S(C)(=O)=O)cc2c1C(=O)NC1CCNCC1(F)F (single isomer, unassigned) [Cpd 333-En 1, N-(3,3-difluoropiperidin-4-yl)-2-methyl-5-((2-(methylsulfonyl)benzyl)oxy)benzofuran-3-carboxamide], which IC50 is on record?
Answer: 1000 to 20000 nM

Question: Cc1oc2ccc(OCc3ccccc3)cc2c1C(=O)N1CCN(c2ccccn2)CC1 [Cpd 214, (5-(benzyloxy)-2-methylbenzofuran-3-yl)(4-(pyridin-2-yl)piperazin-1-yl)methanone] was tested. Which IC50 did it give?
Answer: 1000 to 20000 nM

Question: For CC(=O)N1CC[C@H](NC(=O)c2c(C)oc3ccc(OCc4ccccc4)cc23)C1 [Cpd 145, (S)—N-(1-acetylpyrrolidin-3-yl)-5-(benzyloxy)-2-methylbenzofuran-3-carboxamide], which IC50 is on record?
Answer: 1000 to 20000 nM

Question: With Cc1oc2ccc(OCc3ccccc3)cc2c1C(=O)NC1CCN(CCN(C)C)CC1 [Cpd 225, 5-(benzyloxy)-N-(1-(2-(dimethylamino)ethyl)piperidin-4-yl)-2-methylbenzofuran-3-carboxamide] as the compound, how does the IC50 read?
Answer: 1000 to 20000 nM

Question: Cc1oc2ccc(OCc3cccc(C(F)(F)F)c3)cc2c1C(=O)NC1CCN(C)CC1 [Cpd 232, 2-methyl-N-(1-methylpiperidin-4-yl)-5-((3-(trifluoromethyl)benzyl)oxy)benzofuran-3-carboxamide] was tested. Which IC50 did it give?
Answer: 1000 to 20000 nM

Question: For Cc1oc2ccc(OCc3ccccc3)cc2c1C(=O)N[C@@H]1CN[C@@H](C(=O)O)C1 [Cpd 163, (2R,4S)-4-(5-(benzyloxy)-2-methylbenzofuran-3-carboxamido)pyrrolidine-2-carboxylic acid], which IC50 is on record?
Answer: 1000 to 20000 nM

Question: Which IC50 does the source give for CCN1CCCN(C(=O)c2c(C)oc3ccc(OCc4ccccc4)cc23)CC1 [Cpd 149, (5-(benzyloxy)-2-methylbenzofuran-3-yl)(4-ethyl-1,4-diazepan-1-yl)methanone] here?
Answer: > 20000 nM

Question: How did the IC50 turn out when Cc1oc2ccc(OCc3ccccc3)cc2c1C(=O)NC1CCN(Cc2ccccc2)CC1 [Cpd 241, 5-(benzyloxy)-N-(1-benzylpiperidin-4-yl)-2-methylbenzofuran-3-carboxamide] was run?
Answer: 1000 to 20000 nM

Question: CCNC(=O)c1c(C)oc2ccc(OCc3ccccc3)cc12 [Cpd 038, 5-(benzyloxy)-N-ethyl-2-methylbenzofuran-3-carboxamide] was tested. Which IC50 did it give?
Answer: 1000 to 20000 nM

Question: With Cc1oc2ccc(OCc3ccccc3)cc2c1C(=O)N[C@H]1CCN(C(=O)OC(C)(C)C)C1 [Cpd 239, tert-butyl (S)-3-(5-(benzyloxy)-2-methylbenzofuran-3-carboxamido)pyrrolidine-1-carboxylate] as the compound, how does the IC50 read?
Answer: 1000 to 20000 nM

Question: Cc1oc2ccc(OCc3ccccc3)cc2c1C(=O)NC1(CO)CCN(C(=O)OC(C)(C)C)CC1 [Cpd 262, tert-butyl 4-(5-(benzyloxy)-2-methylbenzofuran-3-carboxamido)-4-(hydroxymethyl)piperidine-1-carboxylate] was tested. Which IC50 did it give?
Answer: 1000 to 20000 nM

Question: How did the IC50 turn out when Cc1oc2ccc(OCc3ccccc3)cc2c1C(=O)N1CCCCC1 [Cpd 047, (5-(benzyloxy)-2-methylbenzofuran-3-yl)(piperidin-1-yl)methanone] was run?
Answer: > 20000 nM

Question: How did the IC50 turn out when Cc1ccccc1COc1ccc2oc(C)c(C(=O)O)c2c1 [Cpd 003, 2-methyl-5-((2-methylbenzyl)oxy)benzofuran-3-carboxylic acid] was run?
Answer: < 1000 nM

Question: How did the IC50 turn out when CCN1CCC[C@@H]1CNC(=O)c1c(C)oc2ccc(OCc3ccccc3)cc12 [Cpd 153, (R)-5-(benzyloxy)-N-((l-ethylpyrrolidin-2-yl)methyl)-2-methylbenzofuran-3-carboxamide] was run?
Answer: < 1000 nM

Question: For Cc1oc2ccc(OCc3ccccc3)cc2c1C(=O)NCC1(CO)COC1 [Cpd 128, 5-(benzyloxy)-N-((3-(hydroxymethyl)oxetan-3-yl)methyl)-2-methylbenzofuran-3-carboxamide], which IC50 is on record?
Answer: < 1000 nM

Question: Cc1oc2ccc(OCc3ccccc3)cc2c1C(=O)NC1CCN(C2COC2)CC1 [Cpd 208, 5-(benzyloxy)-2-methyl-N-(1-(oxetan-3-yl)piperidin-4-yl)benzofuran-3-carboxamide] was tested. Which IC50 did it give?
Answer: 1000 to 20000 nM

Question: With Cc1oc2ccc(OCc3ccccc3)cc2c1C(=O)N1CCC(NC(=O)OC(C)(C)C)CC1 [Cpd 248, tert-butyl (1-(5-(benzyloxy)-2-methylbenzofuran-3-carbonyl)piperidin-4-yl)carbamate] as the compound, how does the IC50 read?
Answer: > 20000 nM

Question: How did the IC50 turn out when Cc1oc2ccc(OCc3ccccc3)cc2c1C(=O)NC1CCCNCC1 (stereo not shown) [Cpd 119, N-(azepan-4-yl)-5-(benzyloxy)-2-methylbenzofuran-3-carboxamide] was run?
Answer: < 1000 nM

Question: COc1ccccc1COc1ccc2oc(C)c(C(=O)N[C@@H](CO)C(N)=O)c2c1 [Cpd 339, (S)—N-(1-Amino-3-hydroxy-1-oxopropan-2-yl)-5-((2-methoxybenzyl)oxy)-2-methylbenzofuran-3-carboxamide] was tested. Which IC50 did it give?
Answer: < 1000 nM

Question: How did the IC50 turn out when Cc1oc2ccc(OCc3cccc(F)c3F)cc2c1C(=O)NC1CCNCC1(F)F (stereo not shown) [Cpd 227, 5-((2,3-difluorobenzyl)oxy)-N-(3,3-difluoropiperidin-4-yl)-2-methylbenzofuran-3-carboxamide] was run?
Answer: < 1000 nM

Question: How did the IC50 turn out when Cc1cc2oc(C)c(C(=O)NC3CNCC3(F)F)c2cc1OCc1ccccc1 (single isomer, unassigned) [Cpd 303-En 2, 5-(benzyloxy)-N-(4,4-difluoropyrrolidin-3-yl)-2,6-dimethylbenzofuran-3-carboxamide] was run?
Answer: > 20000 nM

Question: Which IC50 does the source give for Cc1oc2ccc(OCc3ccccc3)cc2c1C(=O)NC1CCCNC1 (stereo not shown) [Cpd 075, 5-(benzyloxy)-2-methyl-N-(piperidin-3-yl)benzofuran-3-carboxamide] here?
Answer: < 1000 nM

Question: With Cc1oc2ccc(OCc3cccc(F)c3F)cc2c1C(=O)NC1(CO)CCOCC1 [Cpd 217, 5-((2,3-difluorobenzyl)oxy)-N-(4-(hydroxymethyl)tetrahydro-2H-pyran-4-yl)-2-methylbenzo-furan-3-carboxamide] as the compound, how does the IC50 read?
Answer: < 1000 nM

Question: With Cc1oc2ccc(OCc3ccccc3F)cc2c1C(=O)NC1CCN(CCO)C1=O (single isomer, unassigned) [Cpd 311-En 1, 5-((2-Fluorobenzyl)oxy)-N-(1-(2-hydroxyethyl)-2-oxopyrrolidin-3-yl)-2-methylbenzofuran-3-carboxamide] as the compound, how does the IC50 read?
Answer: < 1000 nM

Question: For Cc1oc2ccc(OCc3ccccc3F)cc2c1C(=O)NC1(C(N)=O)CCOC1 (single isomer, unassigned) [Cpd 323-En 1, N-(3-carbamoyltetrahydrofuran-3-yl)-5-((2-fluorobenzyl)oxy)-2-methylbenzofuran-3-carboxamide], which IC50 is on record?
Answer: < 1000 nM

Question: Cc1cccc(COc2ccc3oc(C)c(C(=O)N[C@H]4CCNC4)c3c2)c1 [Cpd 084, (S)-2-methyl-5-((3-methylbenzyl)oxy)-N-(pyrrolidin-3-yl)benzofuran-3-carboxamide] was tested. Which IC50 did it give?
Answer: < 1000 nM

Question: Which IC50 does the source give for Cc1oc2ccc(OC(CO)c3ccccc3)cc2c1C(=O)NC1(CO)CCOCC1 (single isomer, unassigned) [Cpd 317-En 1, 5-(2-hydroxy-1-phenylethoxy)-N-(4-(hydroxymethyl)tetrahydro-2H-pyran-4-yl)-2-methylbenzofuran-3-carboxamide] here?
Answer: < 1000 nM

Question: With Cc1oc2ccc(OCc3ccccc3)cc2c1C(=O)NCc1cccnc1 [Cpd 100, 5-(benzyloxy)-2-methyl-N-(pyridin-3-ylmethyl)benzofuran-3-carboxamide] as the compound, how does the IC50 read?
Answer: 1000 to 20000 nM

Question: Cc1oc2ccc(OCc3ccccc3F)cc2c1C(=O)NC1COCC1(F)F (single isomer, unassigned) [Cpd 331-En 2] was tested. Which IC50 did it give?
Answer: < 1000 nM

Question: How did the IC50 turn out when Cc1oc2ccc(OCc3ccccc3)cc2c1C(=O)NCC1CCCO1 (stereo not shown) [Cpd 087, 5-(benzyloxy)-2-methyl-N-((tetrahydrofuran-2-yl)methyl)benzofuran-3-carboxamide] was run?
Answer: < 1000 nM

Question: Cc1oc2ccc(OCc3ccc(CN)cc3)cc2c1C(=O)NC1CCN(C)CC1 [Cpd 190, 5-((4-(aminomethyl)benzyl)oxy)-2-methyl-N-(1-methylpiperidin-4-yl)benzofuran-3-carboxamide] was tested. Which IC50 did it give?
Answer: > 20000 nM

Question: For Cc1oc2ccc(OCc3ccccc3)cc2c1C(=O)Nc1ccn(C)n1 [Cpd 064, 5-(benzyloxy)-2-methyl-N-(1-methyl-1H-pyrazol-3-yl)benzofuran-3-carboxamide], which IC50 is on record?
Answer: < 1000 nM

Question: With Cc1oc2ccc(OCc3ccccc3)cc2c1C(=O)N[C@H]1CC[C@H](O)CC1 [Cpd 124, 5-(benzyloxy)-N-(trans-4-hydroxycyclohexyl)-2-methylbenzofuran-3-carboxamide] as the compound, how does the IC50 read?
Answer: < 1000 nM

Question: With Cc1oc2ccc(OCc3ccccc3F)cc2c1C(=O)NC1(CO)COC1 [Cpd 310, 5-((2-fluorobenzyl)oxy)-N-(3-(hydroxymethyl)oxetan-3-yl)-2-methylbenzofuran-3-carboxamide] as the compound, how does the IC50 read?
Answer: < 1000 nM

Question: How did the IC50 turn out when Cc1oc2ccc(OCc3ccccc3)cc2c1C(=O)Nc1cccnc1 [Cpd 059, 5-(benzyloxy)-2-methyl-N-(pyridin-3-yl)benzofuran-3-carboxamide] was run?
Answer: < 1000 nM

Question: For Cc1oc2ccc(OCc3ccccc3)cc2c1C(=O)NC1COC1 [Cpd 043, 5-(benzyloxy)-2-methyl-N-(oxetan-3-yl)benzofuran-3-carboxamide], which IC50 is on record?
Answer: < 1000 nM

Question: For COc1cccc(COc2ccc3oc(C)c(C(=O)N[C@H]4CCNC4)c3c2)c1 [Cpd 127, (S)-5-((3-methoxybenzyl)oxy)-2-methyl-N-(pyrrolidin-3-yl)benzofuran-3-carboxamide], which IC50 is on record?
Answer: < 1000 nM

Question: With Cc1oc2ccc(OCc3ccccc3)cc2c1C(=O)NCc1nnc2ncccn12 [Cpd 196, N-([1,2,4]triazolo[4,3-a]pyrimidin-3-ylmethyl)-5-(benzyloxy)-2-methylbenzofuran-3-carboxamide] as the compound, how does the IC50 read?
Answer: 1000 to 20000 nM
